In article PMC6539525, “Design, Synthesis, and Mechanism of Dihydroartemisinin–Coumarin Hybrids as Potential Anti-Neuroinflammatory Agents” (Molecules, 2019):
pIC50: −log10 of the molar value. Read-outs that look alike come from different tables or passages of the source.

Columns and labels:
A549 cells = assay: MTT cytotoxicity in A549 cells; assay type: cell-based; settings: Homo sapiens
Procedure, shortened: (§1)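 Standard MTT assay: cells seeded 24 h, treated with compounds at 6.25–100 μM in triplicate, then grown for 96 h total. Run under normoxia (air throughout) or hypoxia (95% N2 for 24 h, then 72 h normoxia). MTT added for 4 h, formazan dissolved in DMSO, absorbance read at 570 nm.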

[1] = system: NO release of LPS-induced microglial N9 cells; assay: Inhibition of NO release in LPS-induced N9 cells (Griess); assay type: cell-based, murine; settings: Mus musculus, 1 μg/mL LPS for 48 h, NO level in medium
Procedure, shortened: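 Log-phase N9 microglia were grown adherent for 24 h, switched to serum-free medium, then given test compounds under LPS stimulation. Nitrite in supernatant was quantified by Griess reaction at 540 nm; MTT-IC20 was determined to exclude cytotoxic effects.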

[2] = MTT cytotoxicity in N9 cells; assay type: cell-based, murine; settings: mouse, N9 microglial cells, cytotoxic activity
Procedure, shortened: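 N9 microglial cells seeded at 1.5–3 × 10^4 cells/mL, grown 24 h, then exposed to compounds at 6.25–100 μM in triplicate for 96 h. Viability by MTT (4 h), formazan dissolved in DMSO, absorbance at 570 nm; MTT-IC20 derived.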

HT-29 cells = assay: MTT cytotoxicity in HT-29 cells; assay type: cell-based, Human; settings: for pIC50: Homo sapiens, MTT
MDA-MB-231 cells = assay: MTT cytotoxicity in MDA-MB-231 cells; assay type: cell-based; settings: Homo sapiens
Procedure, shortened: as §1

HCT-116 cells = assay: MTT cytotoxicity in HCT-116 cells; assay type: cell-based; settings: Homo sapiens
Procedure, shortened: as §1

[3] = system: TNF-α release of LPS-induced N9 cells; assay: TNF-α release of LPS-induced N9 cells (cytokine kit); assay type: cell-based, murine; settings: compound 1 μM, LPS 1 μg/mL, 48 h; for inhibition at 1 µM: Mus musculus
Method: (§2) N9 cells, which were in the logarithmic phase, were incubated for 24 h by adherent culture. Subsequently, the medium was changed to new one without serum. The cells were treated with different concentration of tested compounds. After specific time in the LPS condition, the supernatants were collected and analyzed.
(§3) The secreted level of TNF-α and IL-6 was measured using mouse Th1/Th2/Th17 Cytokine Kit, purchased from BD Pharningen. The data was analyzed by FCAP Array v3.0. IL-2, IL-4, IL-10, IL-17A, and IFN-γ were not detected in the experiment.

[4] = system: IL-6 release of LPS-induced N9 cells; assay: IL-6 release of LPS-induced N9 cells (cytokine kit); assay type: cell-based, murine; settings: compound 1 μM, LPS 1 μg/mL, 48 h; for inhibition at 1 µM: Mus musculus
Method: as §2, §3

[5] = NO capture analysis with sodium nitroprusside (Griess); settings: 0.01-10 μM compound, 0.5 mM SNP solution, 1 h, room temperature
Method: Sodium nitroprusside (SNP) is a NO donor. In this experiment, the reason of the DCH reducing NO level was preliminary explored. […] That means the main reason of the NO level reduction is due to species-specific effect.
SNP was dissolved in PBS to prepare the 100 mM stock solution. In this experiment, SNP solution of […] was added to 975 μL PBS solution which included different concentration of tested compounds. After 60 min under r.t. condition, the concentration of NO2^− was tested using Griess assay.
6l (0.01 μM, 0.1 μM, 1 μM, and 10 μM) or 5n (0.01 μM, 0.1 μM, 1 μM, and 10 μM) was added to a concentration of 0.5 mM SNP solution. […] Data were shown as mean ± SD. *** p < 0.001 compared with control group.

[6] = A549, hypoxia 24 h then normoxia 72 h, read-out: IC50 A549 Hypoxia
[7] = A549, normoxia 96 h, read-out: IC50 A549 Normoxia
[8] = HT-29, hypoxia 24 h then normoxia 72 h, read-out: IC50 HT-29 Hypoxia
[9] = HT-29, normoxia 96 h, read-out: IC50 HT-29 Normoxia
[10] = MDA-MB-231, hypoxia 24 h then normoxia 72 h, read-out: IC50 MDA-MB-231 Hypoxia
[11] = MDA-MB-231, normoxia 96 h, read-out: IC50 MDA-MB-231 Normoxia
[12] = HCT-116, hypoxia 24 h then normoxia 72 h, read-out: IC50 HCT-116 Hypoxia
[13] = HCT-116, normoxia 96 h, read-out: IC50 HCT-116 Normoxia

Row | pIC50 [1] | melting point [°C] | SMILES | pIC50 (A549 cells; [6]) | pIC50 (A549 cells; [7]) | IC20 [2] [µM] | cell viability of HT-29 cells (HT-29 cells; 6.25-100 μM for 48 h, MTT staining) | pIC50 (HT-29 cells; [8]) | pIC50 (HT-29 cells; [9]) | pIC50 (MDA-MB-231 cells; [10]) | pIC50 (MDA-MB-231 cells; [11]) | pIC50 (HCT-116 cells; [12]) | pIC50 (HCT-116 cells; [13]) | inhibition at 1 µM [3] [%] | TNF-α [3] [pg/mL] | inhibition at 1 µM [4] [%] | IL-6 [4] [pg/mL] | NO radical scavenging activity [5]
1 | 6.66 | 91 to 93 | Cc1ccc2c(OCc3cn(CCO[C@H]4O[C@@H]5O[C@@]6(C)CC[C@H]7[C@H](C)CC[C@@H]([C@H]4C)[C@@]57OO6)nn3)cc(=O)oc2c1C [5n] | 5.61 | 5.68 | 2.44 | decreased in a dose-dependent manner | 5.05 | 4.99 | 4.93 | 4.96 | 4.48 | 4.59 | 22 | 3508.08 ± 368.72 | 43.1 | 656.75 ± 79.49 | had NO radical scavenging activity
2 | 6.28 | 86 to 88 | Cc1cc(C)c2c(OCc3cn(CCCO[C@H]4O[C@@H]5O[C@@]6(C)CC[C@H]7[C@H](C)CC[C@@H]([C@H]4C)[C@@]57OO6)nn3)cc(=O)oc2c1 [6l] | 5.01 | 5.16 | > 10 | – | 5.47 | 5.08 | 5.16 | 5.93 | 4.55 | 4.57 | – | – | – | – | had NO radical scavenging activity
3 | 5.85 | 80 to 82 | Cc1ccc2oc(=O)cc(OCc3cn(CCCO[C@H]4O[C@@H]5O[C@@]6(C)CC[C@H]7[C@H](C)CC[C@@H]([C@H]4C)[C@@]57OO6)nn3)c2c1 [6p] | 4.73 | 4.72 | > 10 | – | 4.90 | 5.13 | 4.99 | 4.66 | 4.42 | 4.45 | 23.4 | 3451.29 ± 646.50 | 35.2 | 747.80 ± 125.56 | –
